Like-named read-outs stand apart in the source and are kept apart here.
Target: T1, GPR73 (prokineticin 1 receptor) (Homo sapiens, UniProt Q8TCW9)
T1 construct: expressed in transfected cells; host or cells: HEK 293
Assay: PK1 functional assay: Ca2+ mobilization on the FLIPR
Assay type: cell-based
Conditions: for inhibition at 10 µM: read-out: Ca^2+ Mobilization % Inh @10 µM; for IC50: HEK 293 GPR73 cells, read-out: Ca^2+ Mobilization IC50
Procedure: At a time of 24 h prior to running the assay, in cell culture media (DMEM containing high Glucose and L-glutamine, 10% FBS, 1% Pen/Streptomycin, 1% Sodium Pyruvate, 20 mM HEPES, Zeocin 200 mg/L), 100 µL of 1.3*10^6/ml HEK 293 GPR73 (prokineticin 1 receptor) expressing cells were plated in a 96 well poly-d-lysine coated plate (Costar), and incubated at 37° C. and 5% CO2. On the day in which the assay was run, the media was removed and 200 µL of 5× Calcium Plus Dye (Molecular Devices) which was previously resuspended with 200 mL of assay buffer [HBSS w/Ca^2+ and Mg^2+ w/o phenol red, 20 mM HEPES, 0.1% BSA, 10 mL probenecid (710 mg probenecid in 5 mL of 1N NaOH, to which was then added 5 mL HBSS containing 20 mM HEPES)] was added to each well of the 96-well plate. The plate was incubated at 37° C. and 5% CO2 for 30 min in dark. The plate was removed and allowed to reach RT for 15 min in the dark. The assay was then run on the FLIPR. In Brief: base line read for 1 min, compound added (25 μL) and incubated for 4 min, 15 seconds, PK1 ligand preparation added (25 μL) for a final concentration of a previously determined EC50 and fluorescence was counted for 1 min, 45 seconds. Baseline is described as the amount of relative fluorescence read when buffer alone is added to cells. Baseline was subtracted from all wells. Percent of control was calculated as follows: (Baseline subtracted well value is divided by baseline subtracted max value)*100. Percent inhibition is 100 minus the percent of control value.
The IC50 is defined as the amount of a given compound required to inhibit 50% of the maximum signal that is generated by the concentration of PK1 preparation used in our assay. IC50 values were calculated using GraphPad Prism.

T1 sequence (Q8TCW9 whole entry, species assumed): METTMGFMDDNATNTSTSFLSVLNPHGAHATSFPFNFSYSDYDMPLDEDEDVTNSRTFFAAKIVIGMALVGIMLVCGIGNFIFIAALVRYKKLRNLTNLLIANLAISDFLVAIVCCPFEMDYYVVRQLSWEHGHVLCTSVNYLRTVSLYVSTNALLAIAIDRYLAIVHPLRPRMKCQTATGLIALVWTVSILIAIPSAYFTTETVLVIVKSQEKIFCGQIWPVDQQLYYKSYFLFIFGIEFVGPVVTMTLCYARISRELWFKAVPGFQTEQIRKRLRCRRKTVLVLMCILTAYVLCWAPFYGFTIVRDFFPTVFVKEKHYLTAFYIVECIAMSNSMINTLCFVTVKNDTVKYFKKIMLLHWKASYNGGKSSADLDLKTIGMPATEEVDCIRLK

## Nc1ncc(CCNc2nc(=O)n(Cc3ccc4c(c3)CCO4)c(=O)n2Cc2ccc3c(c2)CCO3)[nH]1 [Cpd 66]
10 µM
  inhibition at 10 µM: 69%
  IC50: 2420 nM

## CSc1ccc(Cn2c(=O)nc(NCCn3c(N)nc4ccccc43)n(Cc3ccc4c(c3)CCO4)c2=O)cc1 [Cpd 74]
10 µM
  inhibition at 10 µM: 102%
  IC50: 34 nM

## COc1ccc(Cn2c(NCCn3c(N)nc4cc(S(C)(=O)=O)ccc43)nc(=O)n(Cc3ccc(F)cc3)c2=O)cc1 [Cpd 9]
10 µM
  inhibition at 10 µM: 67%
  IC50: 2290 nM

## NC1=Nc2ccc(Cl)cc2CN1CCNc1nc(=O)n(Cc2ccc(F)cc2)c(=O)n1Cc1ccc(OC(F)F)cc1 [Cpd 43]
10 µM
  inhibition at 10 µM: 101%
  IC50: 111 nM

## Nc1ncc(CCNc2nc(=O)n(Cc3ccc4c(c3)CCO4)c(=O)n2Cc2ccc(OC(F)F)cc2)[nH]1 [Cpd 82]
10 µM
  inhibition at 10 µM: 96%
  IC50: 202 nM

## COc1ccc(Cn2c(NCc3c[nH]c(N)n3)nc(=O)n(Cc3ccc(F)cc3)c2=O)cc1 [Cpd 6]
10 µM
  inhibition at 10 µM: 91%
  IC50: 322 nM

## Nc1nc2ccccc2n1CCNc1nc(=O)n(Cc2ccc3c(c2)CCO3)c(=O)n1Cc1ccc2c(c1)CCO2 [Cpd 76]
10 µM
  inhibition at 10 µM: 97%
  IC50: 225 nM

## COc1ccc(Cn2c(NCCc3cnc(N)[nH]3)nc(=O)n(Cc3ccc4c(c3)CCO4)c2=O)cc1 [Cpd 62]
10 µM
  inhibition at 10 µM: 97%
  IC50: 241 nM

## COc1ccc(Cn2c(NCCc3cnc(N)[nH]3)nc(=O)n(Cc3ccc(F)cc3)c2=O)cc1 [Cpd 4]
10 µM, (further determination)
  inhibition at 10 µM: 96%
10 µM
  inhibition at 10 µM: 97%
IC50 (further determination)
  IC50: 42 nM
  IC50: 48 nM

## NC1=Nc2ccc(O)cc2CN1CCNc1nc(=O)n(Cc2ccc(F)cc2)c(=O)n1Cc1ccc(OC(F)F)cc1 [Cpd 56]
10 µM
  inhibition at 10 µM: 100%
  IC50: 161 nM

## Nc1nc2cc(C(F)(F)F)ccc2n1CCNc1nc(=O)n(Cc2ccc(F)cc2)c(=O)n1Cc1ccc(OC(F)(F)F)cc1 [Cpd 35]
10 µM
  inhibition at 10 µM: 59%
  IC50: 5010 nM

## Nc1nc2cccc(F)c2n1CCNc1nc(=O)n(Cc2ccc(F)cc2)c(=O)n1Cc1ccc(OC(F)(F)F)cc1 [Cpd 40]
10 µM
  inhibition at 10 µM: 91%
  IC50: 969 nM

## Nc1nccn1CCNc1nc(=O)n(Cc2ccc(F)cc2)c(=O)n1Cc1ccc(OC(F)(F)F)cc1 [Cpd 22]
10 µM
  inhibition at 10 µM: 100%
  IC50: 61 nM

## NC1=Nc2cc(F)ccc2CN1CCNc1nc(=O)n(Cc2ccc(F)cc2)c(=O)n1Cc1ccc(OC(F)F)cc1 [Cpd 46]
10 µM
  inhibition at 10 µM: 101%
  IC50: 61 nM

## CCc1ccc(Cn2c(=O)nc(NCCn3c(N)nc4ccccc43)n(Cc3ccc(OC(F)F)cc3)c2=O)cc1 [Cpd 86]
10 µM
  inhibition at 10 µM: 94%
  IC50: 337 nM

## Cn1nnc2cc(Cn3c(=O)nc(NCCc4cnc(N)[nH]4)n(Cc4ccc(OC(F)F)cc4)c3=O)ccc21 [Cpd 83]
10 µM
  inhibition at 10 µM: 98%
  IC50: 224 nM

## NC1=Nc2ccc(F)cc2CN1CCNc1nc(=O)n(Cc2ccc(F)cc2)c(=O)n1Cc1ccc(OC(F)(F)F)cc1 [Cpd 51]
10 µM
  inhibition at 10 µM: 99%
  IC50: 996 nM

## CCc1ccc(Cn2c(=O)nc(NCCc3cnc(N)[nH]3)n(Cc3ccc(OC(F)F)cc3)c2=O)cc1 [Cpd 81]
10 µM
  inhibition at 10 µM: 90%
  IC50: 502 nM

## Nc1nc2ccc(Cl)cc2n1CCNc1nc(=O)n(Cc2ccc(F)cc2)c(=O)n1Cc1ccc(OC(F)F)cc1 [Cpd 30]
10 µM
  inhibition at 10 µM: 86%
  IC50: 252 nM

## Nc1nc2ccc(Cl)cc2n1CCNc1nc(=O)n(Cc2ccc(F)cc2)c(=O)n1Cc1ccc(OC(F)(F)F)cc1 [Cpd 38]
10 µM
  inhibition at 10 µM: 84%
  IC50: 670 nM

## NC1=Nc2cccc(Cl)c2CN1CCNc1nc(=O)n(Cc2ccc(F)cc2)c(=O)n1Cc1ccc(OC(F)F)cc1 [Cpd 42]
10 µM
  inhibition at 10 µM: 101%
  IC50: 63 nM

## COc1ccc(Cn2c(NCCn3c(N)nc4ccccc43)nc(=O)n(Cc3ccc4c(c3)nnn4C)c2=O)cc1 [Cpd 77]
10 µM
  inhibition at 10 µM: 99%
  IC50: 55 nM

## COc1ccc(Cn2c(NCCn3c(N)nc4ccccc43)nc(=O)n(Cc3ccc(Cl)cc3)c2=O)cc1 [Cpd 14]
10 µM
  inhibition at 10 µM: 95%
  IC50: 77 nM

— patent US8324380B2, “Amino-heteroaryl-containing prokineticin 1 receptor antagonists” (Janssen Pharmaceutica NV, priority 2007, dated 2012)
